Columns and labels:
[1] = system: acute pain (mice hot plate, 53° C.); experiment: Mice hot-plate test; format: in vivo, Male C57BL/6NCrlCrlj mice; conditions: oral, 60 minutes before the hot-plate test; FIG. 1
Experimental: The mice hot-plate test was performed to determine the efficacy on acute pain. In this model, latency to the first pain response is recorded as a measure of pain sensitivity (Malmberg, A. and Yaksh, T., Pain. 1995, 60: 83-90).
Male C57BL/6NCrlCrlj mice (Charles River Japan) aged 6 weeks (n=4 to 10, for each treatment) were used for this experiment. The hot plate (model MK 350, Muromachi Kikai Co. Ltd) was set to 53° C. For oral administration, the test compound was suspended in an aqueous solution containing 0.45% methyl cellulose/4.5% Cremophor/10% dimethyl sulfoxide to prepare a suspension having a dosing volume of 10 ml/kg and the suspension was administered orally 60 minutes before the hot-plate test Morphine was used as a positive control and the mixed solvent (vehicle) alone not containing the test compound was used as a negative control.
Each mouse was placed on the hot plate and a stopwatch was immediately started for measurement. The latency time to the first pain response (paw lick or escape jump) was measured. The cut-off time was set to 30 seconds in order to avoid overdamage of the tissues, and the mouse was immediately removed from the hot-plate after measurement. All data are expressed as the mean±SEM. All statistical analyses were performed using Holm-Sidak's multiple comparisons test. The p-values less than 0.05 were judged as statistically significant in this experiment.

[2] = system: tactile allodynia in rat chronic constriction injury (CCI) model; experiment: Rat chronic constriction injury (CCI) model, von Frey filament test; format: in vivo, Male SD rats; conditions: for 50% Response threshold: mean±SEM; for response threshold against mechanical stimulation: pre-administration, 10 and 50 mg/kg oral
Description: The rat chronic constriction injury (CCI) model was used to determine the efficacy on the chronic pain. In this model, tactile allodynia, a typical symptom in chronic pain patients, can be evaluated by using a response threshold against mechanical stimulation by von Frey filaments as an index (Bennett G. J. and Xie, Y. K., (Pain 1988; 33: p 87-107).
Male SD rats (Charles River Japan) aged 6 weeks (n=4, each treatment performed twice in total) were used for this experiment. The rat chronic constriction injury (CCI) model was prepared in accordance with the method of Bennett and Xie above.
The common sciatic nerve was exposed at the level of the middle of the thigh by blunt dissection through biceps femoris under isoflurane anesthesia. Four ligatures (4-0 silk) were tied loosely around the sciatic nerve at about 1 mm spacing. The biceps femoris and the skin were sutured.
On 14 days after surgery, efficacy of the compounds on tactile allodynia was evaluated. The animals were housed in wire mesh bottom cages for 30 minutes prior to the start of the experiment for acclimation. The test compound was suspended in an aqueous solution containing 0.45% methyl cellulose/4.5% Cremophor/10% dimethyl sulfoxide to prepare a suspension having a dosing volume of 10 ml/kg and the suspension was administered orally. The above mixed solvent (vehicle) alone not containing the test compound was used as a negative control. The response threshold against mechanical stimulation was measured by the application of von Frey filaments at bending forces (0.4, 0.6, 1, 2, 4, 6, 8, and 15 g) to the plantar surface of the hind paw in accordance with Chaplan et al. (J Neuroscience Methods 1994; 53(1): p. 55-63). The von Frey filaments were pushed to the paw for 6 seconds to evaluate escape response. The 50% response threshold was determined in accordance with the up-down method of Dixon (Annual Review of Pharmacology and Toxicology 1980; 20: p. 441-462). The measurement was performed before administration and at 30, 90 and 180 minutes after administration. All data are expressed as the mean±SEM. All statistical analyses were performed using Two way Repeated Measures ANOVA followed by Dunnett's test. The p-values less than 0.05 were judged as statistically significant in this experiment.

[3] = system: acute persistent pain (formalin-injected paw); experiment: Formalin test (second phase); format: in vivo, Male CD1 (ICR) mice; conditions: oral pre-administration; 15 to 45 minutes after injection of 2.5% formalin; FIG. 2
Experimental: The compounds were examined in the second phase of the formalin test to determine an analgesic effect on acute persistent pain. In this model, the duration of responses induced by pain (behavior such as licking or biting of the formalin-injected paw) is used as an evaluation index (Dubuisson and Dennis (Pain, 4: p. 161-174 (1977)). Male CD1 (ICR) mice (Charles River Japan) aged 5 to 6 weeks (n=6 to 16, for each treatment) were used for the experiment. The responses induced by pain were measured by an automated behavioral analysis apparatus (MicroAct (Neuroscience, Inc.)) according to detection of changes in magnetic field. Before the day prior to evaluation of pain response, a small magnet for the detection of changes in magnetic field was implanted in the left hindlimb instep under isoflurane anesthesia. For oral administration, the test compound was suspended in a solution containing 0.45% methyl cellulose/4.5% Ceremophor/10% dimethyl sulfoxide to prepare a suspension having a dosing volume of 10 ml/kg and the suspension was administered orally. The mixed solvent as above (vehicle) alone not containing the test compound was used as a negative control. Gabapentin was intraperitoneally administered as a positive control. A 2.5% formalin solution was prepared by diluting Formaldehyde Solution (Wako Pure Chemical Industries) with physiological saline (Otsuka Pharmaceutical). At 40 minutes to an hour after administration of the test compound or the positive control, 10 μl of the 2.5% formalin solution was subcutaneously injected in the left hindlimb pad. The mouse was placed in an observation chamber immediately after administration for measurement. For evaluation of an analgesic effect in the second phase, the duration of behaviors such as licking or biting of the paw was measured by the automated behavioral analysis apparatus from 15 to 45 minutes after injection of the 2.5% formalin solution. All data are expressed as the mean±SEM. All statistical analyses were performed using the Holm-Sidak's multiple comparisons test. The p-values less than 0.05 were judged as statistically significant in this experiment.

[4] = 10 mg/kg oral, 30 min after administration
[5] = 10 mg/kg oral, 90 min after administration
[6] = 10 mg/kg oral, 180 min after administration
[7] = 10 mg/kg oral, Pre (before administration), 14 days after surgery
[8] = 50 mg/kg oral, 30 min after administration
[9] = 50 mg/kg oral, 90 min after administration
[10] = 50 mg/kg oral, 180 min after administration
[11] = 50 mg/kg oral, Pre (before administration), 14 days after surgery

| Compound | latency time to the first pain response [1] | 50% Response threshold [2, 4] [g] | 50% Response threshold [2, 5] [g] | 50% Response threshold [2, 6] [g] | 50% Response threshold [2, 7] [g] | analgesic effect on tactile allodynia in CCI model ([2]; 50 mg/kg oral) | 50% Response threshold [2, 8] [g] | 50% Response threshold [2, 9] [g] | 50% Response threshold [2, 10] [g] | 50% Response threshold [2, 11] [g] | response threshold against mechanical stimulation [2] | duration of the pain response [3] |
| --- | --- | --- | --- | --- | --- | --- | --- | --- | --- | --- | --- | --- |
| NS(=O)(=O)N[C@H]1c2c(F)cc(F)cc2CC1(F)F [Compound 1, N-[(1S)-2,2,5,7-tetrafluoro-2,3-dihydro-1H-inden-1-yl]sulfamide] | significantly increased | 3.2 ± 0.3 | 4.4 ± 0.5 | 3.1 ± 0.3 | 2.4 ± 0.2 | statistically significant analgesic effect | 6.0 ± 0.7 | 11.4 ± 1.4 | 5.3 ± 0.6 | 2.3 ± 0.2 | increased in an approximately dose dependent manner | statistically significantly shortened |
| Cc1cc(F)cc2c1[C@H](NS(N)(=O)=O)C(F)(F)C2 [Compound 4, N-[(1S)-2,2,5-Trifluoro-7-methyl-2,3-dihydro-1H-inden-1-yl]sulfamide] | significantly increased | 3.6 ± 0.4 | 5.2 ± 1.5 | 5.2 ± 1.0 | 2.4 ± 0.2 | – | 4.3 ± 0.9 | 6.9 ± 1.5 | 5.6 ± 1.6 | 2.4 ± 0.2 | – | statistically significantly shortened |
| NS(=O)(=O)NC1c2c(Cl)cc(F)cc2CC1(F)F (single isomer, unassigned; (-)) [Compound 2, (−)-N-(7-chloro-2,2,5-trifluoro-2,3-dihydro-1H-inden-1-yl)sulfamide] | significantly increased | 3.2 ± 0.4 | 4.1 ± 0.5 | 3.1 ± 0.2 | 2.4 ± 0.2 | statistically significant analgesic effect | 4.2 ± 0.6 | 7.6 ± 1.1 | 4.0 ± 0.5 | 2.3 ± 0.2 | increased in an approximately dose dependent manner | statistically significantly shortened |
| Cc1cccc2c1[C@H](NS(N)(=O)=O)C(F)(F)C2 [Compound 3, N-[(1S)-2,2-difluoro-7-methyl-2,3-dihydro-1H-inden-1-yl]sulfamide] | significantly increased | 2.6 ± 0.4 | 3.5 ± 0.7 | 3.9 ± 0.4 | 2.4 ± 0.2 | – | 3.1 ± 0.4 | 3.2 ± 0.5 | 4.0 ± 0.4 | 2.4 ± 0.2 | – | statistically significantly shortened |
| NS(=O)(=O)NCc1csc2ccccc12 [compound 1, N-(benzo[b]thiophen-3-ylmethyl)sulfamide, reference compound] | – | 2.7 ± 0.4 | 3.4 ± 0.2 | 3.4 ± 0.3 | 2.5 ± 0.2 | – | 3.5 ± 0.3 | 3.9 ± 0.3 | 2.8 ± 0.2 | 2.5 ± 0.2 | – | – |
| NS(=O)(=O)NC[C@H]1COc2cc(Cl)ccc2O1 [compound 2, (2S)-(−)-N-(6-chloro-2,3-dihydro-benzo[1,4]dioxin-2-ylmethyl)-sulfamide, reference compound] | – | 2.9 ± 0.4 | 3.2 ± 0.4 | 3.0 ± 0.2 | 2.6 ± 0.2 | – | 3.5 ± 0.3 | 4.5 ± 0.4 | 3.6 ± 0.6 | 2.6 ± 0.2 | – | – |

— patent US9610262B2, “Therapeutic and/or preventive agent comprising 1-indansulfamide derivative for pain” (Eisai R&D Management Co., Ltd., priority 2013, dated 2017)
